Assay results: US20250212884A1, “Magnesia Compounds For Preventing Contamination Of Animal Farming Facilities And For Decontamination Of Same” (priority 2022, published 2025)

System: Salmonella
Experiment: Salmonella detection (drag swabs, ISO 6579-1:2017) in poultry (turkey) buildings one week after spraying of disinfectant
Set-up: species or system Salmonella spp.
Conditions: Experiment 3; one week after application; 500 liter per 1000 m^2

Cc1ccc(S(=O)(=O)NCl)cc1.[Na] [Chlorigal T, Sodium N-chloro-para-toluenesulfonamide]
Salmonella test result, Sample #1: Negative
Salmonella test result, Sample #2: Negative
